From PubChem BioAssay AID1963850 (Molecular Pharmacology Branch, DTP, NCI, 2024)

Tested on: 192522-019-R-J2-PDC complex tumor spheroid viability
Test: Anticancer human tumor 192522-019-R-J2-PDC patient-derived colon adenocarcinoma cell line growth inhibition [POLQ]
Conditions: for IC50: curve of first compound; for viability, T/C: stronger effect = lower value
In short: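 Three-cell-type spheroids modelling solid tumor plus stroma served as the readout system; POL inhibitors were tested individually and in combination, concentration ranges set by clinical Cmax where known.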

[1] = second compound 0.0316 µM, first compound 0.00316 µM
[2] = second compound 0.0316 µM, first compound 0.01 µM
[3] = second compound 0.0316 µM, first compound 0.0316 µM
[4] = second compound 0.0316 µM, first compound 0.1 µM
[5] = second compound 0.1 µM, first compound 0.00316 µM
[6] = second compound 0.1 µM, first compound 0.01 µM
[7] = second compound 0.1 µM, first compound 0.0316 µM
[8] = second compound 0.1 µM, first compound 0.1 µM
[9] = second compound 0.316 µM, first compound 0.00316 µM
[10] = second compound 0.316 µM, first compound 0.01 µM
[11] = second compound 0.316 µM, first compound 0.0316 µM
[12] = second compound 0.316 µM, first compound 0.1 µM
[13] = second compound 1 µM, first compound 0.00316 µM
[14] = second compound 1 µM, first compound 0.01 µM
[15] = second compound 1 µM, first compound 0.0316 µM
[16] = second compound 1 µM, first compound 0.1 µM
[17] = second compound 3.16 µM, first compound 0.00316 µM
[18] = second compound 3.16 µM, first compound 0.01 µM
[19] = second compound 3.16 µM, first compound 0.0316 µM
[20] = second compound 3.16 µM, first compound 0.1 µM
[21] = second compound 10 µM, first compound 0.00316 µM
[22] = second compound 10 µM, first compound 0.01 µM
[23] = second compound 10 µM, first compound 0.0316 µM
[24] = second compound 10 µM, first compound 0.1 µM
[25] = second compound 0.0316 µM, first compound 0.316 µM
[26] = second compound 0.0316 µM, first compound 1 µM
[27] = second compound 0.1 µM, first compound 0.316 µM
[28] = second compound 0.1 µM, first compound 1 µM
[29] = second compound 0.316 µM, first compound 0.316 µM
[30] = second compound 0.316 µM, first compound 1 µM
[31] = second compound 1 µM, first compound 0.316 µM
[32] = second compound 1 µM, first compound 1 µM
[33] = second compound 3.16 µM, first compound 0.316 µM
[34] = second compound 3.16 µM, first compound 1 µM
[35] = second compound 10 µM, first compound 0.316 µM
[36] = second compound 10 µM, first compound 1 µM
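Further: spheroids exposed to drugs for seven days before reading.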
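Wherever viability, T/C is given: 100% = DMSO vehicle control viability in luminescence.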

## Cn1ncnc1[C@H]1c2n[nH]c(=O)c3cc(F)cc(c23)N[C@@H]1c1ccc(F)cc1 + COC1C(OC(N)=O)C(O)C(Oc2ccc3c(O)c(NC(=O)c4ccc(O)c(CC=C(C)C)c4)c(=O)oc3c2C)OC1(C)C
Second compound 0.0316 µM
  IC50: > 100 nM
Second compound 0.1 µM
  IC50: > 100 nM
Second compound 0.316 µM
  IC50: > 100 nM
Second compound 1 µM
  IC50: > 100 nM
Second compound 3.16 µM
  IC50: > 100 nM
Second compound 10 µM
  IC50: > 100 nM
Second compound 0.0316 µM, first compound 0.000316 µM
  viability, T/C: 118%
Second compound 0.0316 µM, first compound 0.001 µM
  viability, T/C: 91.9%
[1]
  viability, T/C: 95.2%
[2]
  viability, T/C: 96.6%
[3]
  viability, T/C: 102%
[4]
  viability, T/C: 91.4%
Second compound 0.1 µM, first compound 0.000316 µM
  viability, T/C: 103%
Second compound 0.1 µM, first compound 0.001 µM
  viability, T/C: 100%
[5]
  viability, T/C: 103%
[6]
  viability, T/C: 103%
[7]
  viability, T/C: 100%
[8]
  viability, T/C: 97.2%
Second compound 0.316 µM, first compound 0.000316 µM
  viability, T/C: 99.9%
Second compound 0.316 µM, first compound 0.001 µM
  viability, T/C: 99.2%
[9]
  viability, T/C: 99.4%
[10]
  viability, T/C: 97.4%
[11]
  viability, T/C: 93.8%
[12]
  viability, T/C: 87.2%
Second compound 1 µM, first compound 0.000316 µM
  viability, T/C: 98.8%
Second compound 1 µM, first compound 0.001 µM
  viability, T/C: 95.6%
[13]
  viability, T/C: 101%
[14]
  viability, T/C: 99.2%
[15]
  viability, T/C: 86.5%
[16]
  viability, T/C: 95.1%
Second compound 3.16 µM, first compound 0.000316 µM
  viability, T/C: 110%
Second compound 3.16 µM, first compound 0.001 µM
  viability, T/C: 98.8%
[17]
  viability, T/C: 108%
[18]
  viability, T/C: 98.1%
[19]
  viability, T/C: 95.8%
[20]
  viability, T/C: 90.5%
Second compound 10 µM, first compound 0.000316 µM
  viability, T/C: 108%
Second compound 10 µM, first compound 0.001 µM
  viability, T/C: 89.8%
[21]
  viability, T/C: 96.4%
[22]
  viability, T/C: 102%
[23]
  viability, T/C: 107%
[24]
  viability, T/C: 94.4%

## C=CCn1c(=O)c2cnc(Nc3ccc(N4CCN(C)CC4)cc3)nc2n1-c1cccc(C(C)(C)O)n1 + Nc1ccc(C#CCN(C(=O)Cc2ncc(C(F)(F)F)cc2C(F)(F)F)c2ccc(F)cc2)nn1
Second compound 0.0316 µM
  IC50: 732 nM
Second compound 0.1 µM
  IC50: 757 nM
Second compound 0.316 µM
  IC50: 799 nM
Second compound 1 µM
  IC50: 778 nM
Second compound 3.16 µM
  IC50: 901 nM
Second compound 10 µM
  IC50: 833 nM
[1]
  viability, T/C: 104%
[2]
  viability, T/C: 103%
[3]
  viability, T/C: 93%
[4]
  viability, T/C: 91.8%
[25]
  viability, T/C: 92.4%
[26]
  viability, T/C: 34.1%
[5]
  viability, T/C: 107%
[6]
  viability, T/C: 103%
[7]
  viability, T/C: 97.5%
[8]
  viability, T/C: 96.6%
[27]
  viability, T/C: 93.2%
[28]
  viability, T/C: 35.9%
[9]
  viability, T/C: 105%
[10]
  viability, T/C: 97.4%
[11]
  viability, T/C: 92.3%
[12]
  viability, T/C: 99.8%
[29]
  viability, T/C: 93%
[30]
  viability, T/C: 39.5%
[13]
  viability, T/C: 103%
[14]
  viability, T/C: 108%
[15]
  viability, T/C: 102%
[16]
  viability, T/C: 95.2%
[31]
  viability, T/C: 89.7%
[32]
  viability, T/C: 39%
[17]
  viability, T/C: 108%
[18]
  viability, T/C: 101%
[19]
  viability, T/C: 104%
[20]
  viability, T/C: 94.8%
[33]
  viability, T/C: 97.8%
[34]
  viability, T/C: 45.3%
[21]
  viability, T/C: 112%
[22]
  viability, T/C: 113%
[23]
  viability, T/C: 110%
[24]
  viability, T/C: 106%
[35]
  viability, T/C: 98.5%
[36]
  viability, T/C: 40.2%

## CC1COCCN1c1cc(C2(S(C)(=N)=O)CC2)nc(-c2ccnc3[nH]ccc23)n1 (stereo unspecified) + Cc1cccc(N(C)C(=O)C2C(O)CCN2c2nc(C)cc(C(F)(F)F)c2C#N)c1
Second compound 0.0316 µM
  IC50: 4750 nM
Second compound 0.1 µM
  IC50: 4150 nM
Second compound 0.316 µM
  IC50: 5850 nM
Second compound 1 µM
  IC50: 5720 nM
Second compound 3.16 µM
  IC50: 7680 nM
Second compound 10 µM
  IC50: 7210 nM
[3]
  viability, T/C: 112%
[4]
  viability, T/C: 88%
[25]
  viability, T/C: 92.8%
[26]
  viability, T/C: 83.8%
Second compound 0.0316 µM, first compound 3.16 µM
  viability, T/C: 59.9%
Second compound 0.0316 µM, first compound 10 µM
  viability, T/C: 30.1%
[7]
  viability, T/C: 101%
[8]
  viability, T/C: 97.8%
[27]
  viability, T/C: 97.7%
[28]
  viability, T/C: 89.2%
Second compound 0.1 µM, first compound 3.16 µM
  viability, T/C: 54.8%
Second compound 0.1 µM, first compound 10 µM
  viability, T/C: 34.2%
[11]
  viability, T/C: 106%
[12]
  viability, T/C: 105%
[29]
  viability, T/C: 105%
[30]
  viability, T/C: 90.1%
Second compound 0.316 µM, first compound 3.16 µM
  viability, T/C: 64.5%
Second compound 0.316 µM, first compound 10 µM
  viability, T/C: 37.6%
[15]
  viability, T/C: 97.6%
[16]
  viability, T/C: 99.2%
[31]
  viability, T/C: 96%
[32]
  viability, T/C: 98.1%
Second compound 1 µM, first compound 3.16 µM
  viability, T/C: 64.3%
Second compound 1 µM, first compound 10 µM
  viability, T/C: 36.5%
[19]
  viability, T/C: 104%
[20]
  viability, T/C: 100%
[33]
  viability, T/C: 103%
[34]
  viability, T/C: 91.9%
Second compound 3.16 µM, first compound 3.16 µM
  viability, T/C: 78.7%
Second compound 3.16 µM, first compound 10 µM
  viability, T/C: 41.4%
[23]
  viability, T/C: 95.5%
[24]
  viability, T/C: 106%
[35]
  viability, T/C: 113%
[36]
  viability, T/C: 98.9%
Second compound 10 µM, first compound 3.16 µM
  viability, T/C: 75.7%
Second compound 10 µM, first compound 10 µM
  viability, T/C: 39.8%
